Structures can show the parent of a compound that is named as a salt.
target: T1, human CaSR (Homo sapiens, UniProt P41180); experiment: Assessment of CaSR agonistic activity (Ca2+ fluorescence, FLIPR, hCaSR-transfected 293E cells); format: cell-based; settings: human CaSR-expressing 293E cells, 1.5 mM CaCl2 assay buffer, 3-minute change in fluorescence intensity
T1 construct: expressed in transfected cells; host or cells: 293E cells (EBNA1-expressing HEK293, ATCC No. CRL-10852), transient transfection of hCaSR/pcDNA3.1
T1 sequence (P41180 20-1078): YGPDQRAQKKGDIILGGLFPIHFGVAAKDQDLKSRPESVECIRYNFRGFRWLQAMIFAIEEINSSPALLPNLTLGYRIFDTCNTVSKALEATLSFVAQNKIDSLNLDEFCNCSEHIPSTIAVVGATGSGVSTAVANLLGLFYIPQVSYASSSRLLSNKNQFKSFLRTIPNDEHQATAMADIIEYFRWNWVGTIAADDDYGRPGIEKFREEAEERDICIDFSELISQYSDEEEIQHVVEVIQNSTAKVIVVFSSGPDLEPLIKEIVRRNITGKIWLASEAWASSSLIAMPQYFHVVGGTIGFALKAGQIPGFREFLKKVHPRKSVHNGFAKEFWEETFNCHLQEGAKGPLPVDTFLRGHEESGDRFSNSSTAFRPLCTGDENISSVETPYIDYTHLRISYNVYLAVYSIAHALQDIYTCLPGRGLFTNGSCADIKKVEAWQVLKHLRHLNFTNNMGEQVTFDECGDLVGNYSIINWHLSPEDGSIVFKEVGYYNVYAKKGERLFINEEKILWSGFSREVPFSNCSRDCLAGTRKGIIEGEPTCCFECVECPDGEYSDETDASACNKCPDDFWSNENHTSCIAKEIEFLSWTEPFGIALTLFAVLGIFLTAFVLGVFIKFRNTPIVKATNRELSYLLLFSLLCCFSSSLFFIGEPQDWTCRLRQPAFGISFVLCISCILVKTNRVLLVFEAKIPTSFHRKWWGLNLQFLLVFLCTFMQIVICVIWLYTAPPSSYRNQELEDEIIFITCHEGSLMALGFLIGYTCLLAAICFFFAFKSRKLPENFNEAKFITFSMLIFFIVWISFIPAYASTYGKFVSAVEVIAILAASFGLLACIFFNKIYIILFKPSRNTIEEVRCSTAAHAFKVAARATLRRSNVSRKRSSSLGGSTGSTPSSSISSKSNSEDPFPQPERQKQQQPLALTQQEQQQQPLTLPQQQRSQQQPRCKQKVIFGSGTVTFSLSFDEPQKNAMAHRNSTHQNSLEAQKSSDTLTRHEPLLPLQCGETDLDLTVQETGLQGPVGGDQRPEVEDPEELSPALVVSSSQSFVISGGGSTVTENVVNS
Procedure: CaSR gene was prepared according to the method described in Example 1 of WO07/55393. The resulting recombinant plasmid was used to generate human CaSR-expressing plasmid hCaSR/pcDNA3.1.
293E cells (EBNA1-expressing IIEK293 cells, ATCC No. CRL-10852) were cultured in DMEM ([…] Glucose-containing Dulbecco's modified Eagle medium, Nacalai Tesque) containing 10% bovine fetal serum in the presence of 250 μg/ml of G418. The cells were seeded on a 10 cm-diameter petri dish at 1.8×10^6 cells/15 ml, and left to stand in a CO2 incubator (5% CO2, 37° C.) for 24 hours. Thereafter, human CaSR expression plasmid hCaSR/pcDNA3.1 was transfected with transfection reagent Mirus Trans IT 293 (Takara Bio). Following static culture in a CO2 incubator for 24 hours, the cells were harvested with 10% bovine fetal serum-containing DMEM and seeded on a poly-D-lysine coat 384 well plate (Falcon) at 15,000 cells/well. Following static culture in a CO2 incubator for 24 hours, the medium was removed and the resultant was added with 50 μl/well of Ca^2+ fluorescent indicator Calcium 4 Assay Kit (Molecular Devices) dissolved in an assay buffer (146 mM NaCl, 5 mM KCl, 1 mM MgSO4, 1 mg/ml Glucose, 20 mM HEPES (PH 7.2), 1.5 mM CaCl2), and left to stand at 37° C. for an hour and then at room temperature for 30 minutes to allow intake of the indicator. The above-mentioned 384-well plate was transferred to FLIPR (Molecular Devices) and added with 12.5 μl/well of a compound dissolved in a 0.1% BSA-containing assay buffer to measure 3-minute change in the fluorescence intensity.
The difference between maximum and minimum fluorescence intensities before and after compound addition (RFU (Max−Min)) was determined by FLIPR automatic calculation. An activity rate was calculated where RFU (Max−Min) upon addition of a compound at a maximum concentration was defined 100% and RFU (Max−Min) upon addition of DMSO as a substitute for the compound at the same concentration was defined 0%. The rate was subjected to curve fitting using spreadsheet software Xfit to determine EC50 value, i.e., a compound concentration upon 50% activity rate.

| Structure (SMILES) | EC50 |
| --- | --- |
| N[C@@H](CSC(=O)Nc1cccc(S(=O)(=O)O)c1)C(=O)O [Example 4, (2R)-2-amino-3-{[(3-sulfophenyl)carbamoyl]sulfanyl}propanoic acid] | 40 nM |
| N#CCC[C@H](N)COC(=O)Nc1cc(Cl)cc(S(=O)(=O)O)c1O [Example 12, 3-({[(2S)-2-amino-4-cyanobutoxy]carbonyl}amino)-5-chloro-2-hydroxybenzene-1-sulfonic acid] | 1100 nM |
| N[C@@H](CCC(=O)Nc1cc(Cl)cc(S(=O)(=O)O)c1O)c1nnc(Cc2ccccc2)o1 [Example 16, 3-[(4S)-4-amino-4-(5-benzyl-1,3,4-oxadiazol-2-yl)butanamide]-5-chloro-2-hydroxybenzene-1-sulfonic acid] | 880 nM |
| N[C@@H](CCC(=O)Nc1cc(Cl)cc(S(=O)(=O)O)c1O)C(=O)NNC(=O)Cc1ccccc1 [Example 17, 3-[(4S)-4-amino-5-oxo-5-(2-phenylacetohydrazide)pentanamide]-5-chloro-2-hydroxybenzene-1-sulfonic acid] | 250 nM |
| N[C@@H](CCC(=O)Nc1cccc(S(=O)(=O)O)n1)C(=O)O [Example 42, (2S)-2-amino-4-[(6-sulfopyridine-2-yl)carbamoyl]butanoic acid trifluoroacetic acid salt] | 13000 nM |
| Cc1c(Cl)cc(S(=O)(=O)O)cc1NC(=S)NC[C@H](N)C(=O)O [Example 47, (2S)-2-amino-3-{[(3-chloro-2-methyl-5-sulfophenyl)carbamothioyl]amino}propanoic acid] | 4 nM |
| N[C@@H](CCC(=O)Nc1cc(Cl)cc(S(=O)(=O)O)c1O)C(=O)NS(=O)(=O)c1ccccc1 [Example 62, 3-[(4S)-4-amino-4-[(benzenesulfonyl)carbamoyl]butanamide]-5-chloro-2-hydroxybenzene-1-sulfonic acid] | 2300 nM |
| COC(=O)[C@@H](N)CNC(=O)Nc1cc(Cl)cc(S(=O)(=O)O)c1O [Example 67, 3-({[(2S)-2-amino-3-methoxy-3-oxopropyl]carbamoyl}amino)-5-chloro-2-hydroxybenzene-1-sulfonic acid] | 3 nM |
| CN(C)[C@@H](CCC(=O)Nc1cc(Cl)cc(S(=O)(=O)O)c1O)C(=O)O [Example 76, (2S)-4-[(5-chloro-2-hydroxy-3-sulfophenyl)carbamoyl]-2-(dimethylamino)butanoic acid] | 1800 nM |
| N[C@@H](CNC(=O)Nc1cccc(S(=O)(=O)O)c1)C(=O)O [Example 77, (2S)-2-amino-3-{[(3-sulfophenyl)carbamoyl]amino}propanoic acid] | 18 nM |
| CC(=O)Nc1cc(S(=O)(=O)O)cc(NC(=O)NC[C@H](N)C(=O)O)c1O [Example 83, (2S)-2-amino-3-{[(3-acetamide-2-hydroxy-5-sulfophenyl)carbamoyl]amino}propanoic acid] | 21100 nM |
| N[C@@H](CNC(=O)Nc1cccc(C(=O)O)c1)C(=O)O [Example 85, 3-({[(2S)-2-amino-2-carboxyethyl]carbamoyl}amino)benzoic acid] | 1600 nM |
| N[C@@H](CNC(=O)Nc1cc(C(=O)O)ccc1Cl)C(=O)O [Example 88, 3-({[(2S)-2-amino-2-carboxyethyl]carbamoyl}amino)-4-chlorobenzoic acid] | 2300 nM |
| N[C@@H](CNC(=O)Nc1cc(C(=O)O)cc([N+](=O)[O-])c1)C(=O)O [Example 92, 3-({[(2S)-2-amino-2-carboxyethyl]carbamoyl}amino)-5-nitrobenzoic acid] | 1800 nM |
| Cc1ccc(C(=O)O)cc1NC(=O)NC[C@H](N)C(=O)O [Example 93, 3-({[(2S)-2-amino-2-carboxyethyl]carbamoyl}amino)-4-methylbenzoic acid] | 5000 nM |
| Cc1ccc(NC(=O)NC[C@H](N)C(=O)O)cc1C(=O)O [Example 99, 5-({[(2S)-2-amino-2-carboxyethyl]carbamoyl}amino)-2-methylbenzoic acid] | 15000 nM |
| COc1c(NC(=O)NC[C@H](N)C(=O)O)cccc1C(=O)O [Example 100, 3-({[(2S)-2-amino-2-carboxyethyl]carbamoyl}amino)-2-methoxybenzoic acid] | 5800 nM |
| N[C@@H](CNC(=O)Nc1cc(S(=O)(=O)O)ccc1F)C(=O)O [Example 104, (2S)-2-amino-3-{[(2-fluoro-5-sulfophenyl)carbamoyl]amino}propanoic acid] | 490 nM |

The next lines start with the values.

| EC50 | Structure (SMILES) |
| --- | --- |
| 180 nM | Cc1nnc([C@@H](N)CCC(=O)Nc2cc(Cl)cc(S(=O)(=O)O)c2O)o1 [Example 15, 3-[(4S)-4-amino-4-(5-methyl-1,3,4-oxadiazol-2-yl)butanamide]-5-chloro-2-hydroxybenzene-1-sulfonic acid] |
| 1200 nM | N[C@@H](CCC(=O)Nc1cc(Cl)cc(S(=O)(=O)O)c1O)C(=O)NCCc1cccc(Cl)c1 [Example 32, 3-[(4S)-4-amino-4-{[2-(3-chlorophenyl)ethyl]carbamoyl}butanamide]-5-chloro-2-hydroxybenzene-1-sulfonic acid] |
| 390 nM | CS(=O)(=O)NC(=O)[C@@H](N)CCC(=O)Nc1cc(Cl)cc(S(=O)(=O)O)c1O [Example 34, 3-[(4S)-4-amino-4-(methanesulfonylcarbamoyl)butanamide]-5-chloro-2-hydroxybenzene-1-sulfonic acid] |
| 39 nM | N[C@@H](CCC(=O)Nc1cc(Cl)cc(S(=O)(=O)O)c1O)C(=O)NO [Example 41, 3-[(4S)-4-amino-4-(hydroxycarbamoyl)butanamide]-5-chloro-2-hydroxybenzene-1-sulfonic acid] |
| 7000 nM | C[C@H](OC(=O)Nc1cccc(S(=O)(=O)O)c1)[C@H](N)C(=O)O [Example 43, (2S,3S)-2-amino-3-{[(3-sulfophenyl)carbamoyl]oxy}butanoic acid] |
| 313 nM | CN[C@@H](CNC(=O)Nc1cc(Cl)c(C)c(S(=O)(=O)O)c1)C(=O)O [Example 79, (2S)-3-{[(3-chloro-4-methyl-5-sulfophenyl)carbamoyl]amino}-2-(methylamino)propanoic acid] |
| 3700 nM | COc1ccc(NC(=O)NC[C@H](N)C(=O)O)cc1S(=O)(=O)O [Example 81, (2S)-2-amino-3-{[(4-methoxy-3-sulfophenyl)carbamoyl]amino}propanoic acid] |
| 1000 nM | COc1ccc(S(=O)(=O)O)cc1NC(=O)NC[C@H](N)C(=O)O [Example 82, (2S)-2-amino-3-{[(2-methoxy-5-sulfophenyl)carbamoyl]amino}propanoic acid] |
| 1100 nM | Cc1cc(C)c(S(=O)(=O)O)cc1NC(=O)NC[C@H](N)C(=O)O [Example 89, (2S)-2-amino-3-{[(2,4-dimethyl-5-sulfophenyl)carbamoyl]amino}propano is acid] |
| 1000 nM | N[C@@H](CNC(=O)Nc1cccc(C(=O)O)c1O)C(=O)O [Example 90, 3-({[(2S)-2-amino-2-carboxyethyl]carbamoyl}amino)-2-hydroxybenzoic acid] |
| 3600 nM | COc1cc(NC(=O)NC[C@H](N)C(=O)O)cc(C(=O)O)c1 [Example 101, 3-({[(2S)-2-amino-2-carboxyethyl]carbamoyl}amino)-5-methoxybenzoic acid] |
